Assay [1] deals with U937. Nature of the assay: Phagocytosis assay with Latex Beads-Rabbit IgG-FITC, U937 cells. Type of assay: cell-based. Conditions: FIG. 6. The source says: (§1) Phagocytosis is a very important physiological process which is characterized by the ingestion of foreign particles and killing of microorganisms by phagocytic leukocytes (monocytes, macrophages, granulocytes). The phagocytic leukocytes are part of a first line of natural defense against potential pathogens. Phagocytotic active of phagocytes can be measured using a phagocytosis assay. The phagocytosis assay uses fluorescently-opsonized latex beads which are contacted with phagocytic cells. After maintaining the beads in contact with the cell, fluorescent reading of cells is used to assess the degree of phagocytosis. Thus, the degree of phagocytosis from cells treated with different compounds can be compared quantifiably.
EDTA chelates Zinc. Phagocytotic immune cells were contacted with fluorescently-opsonized latex beads in the presence of ZnCl2 and EDTA to determine the effect addition of zinc-chelating EDTA changes the effects of zinc on the phagocytotic activity of phagocytotic immune cells.
(§2) 96-well plates were seeded with either phagocytic immune cells THP1 (cat #TIB202, ATCC) and U937 (cat #CRL-1593.2, ATCC) at 5×10^4 cells/well in 100 μl of RPMI-1640 medium containing 10 ng/ml phorbol myristic acid (PMA, Sigma) for 48 hr in a CO2 incubator at 37° C.
(§3) Medium was changed with 100 μl/ml of RPMI-1640 (Item #500290, Cayman). U937 cells were treated with ZnCl2 or ZnCl2 and EDTA. THP1 cells were treated with ZnO or ZnO plus EDTA. 10 μl of the Latex Beads-Rabbit IgG-FITC solution were added to each well. Plates were mixed gently and cells were incubated in a CO2 incubator at 37° C. for 24-48 hrs.
(§4) After incubation, plates were centrifuged for 5 minutes at 400×g at room temperature. Supernatant was carefully aspirated. 50 μl of Trypan blue solution was added to each well and plates were incubated for 1-2 mins at room temperature. Plates were centrifuged for 5 minutes at 400×g at room temperature. Supernatant was carefully aspirated. Fluorescent intensity was read using in plate reader at excitation 485/emission 535 nm.

The subject of assay [2] is THP1. The experiment in a line: Phagocytosis assay with Latex Beads-Rabbit IgG-FITC, THP1 cells. Particulars: FIG. 7; for phagocytosis activity: versus EDTA control. Type of assay: cell-based.
Description: as §1, §2, §3, §4

Turning to `O=C(O)CN(CCN(CC(=O)O)CC(=O)O)CC(=O)O` [EDTA], in assay [1] (EDTA alone versus untreated control), the phagocytosis activity result is “No difference in phagocytosis activity”.

As for `[Cl-].[Cl-].[Zn+2]` [ZnCl2], the phagocytosis activity entry in assay [1] (12.5 μM, versus untreated control) was “more phagocytosis activity than untreated control cells”; in assay [1] (25 μM, versus untreated control) it was “more phagocytosis activity than untreated control cells”.

Consider `[O]=[Zn]` [ZnO, zinc oxide], for which, in assay [2] (6.25 μM compared with 12.5 μM and 25 μM), the “phagocytosis activity, comparison among the tested ZnO amounts” value is recorded as “greatest increase”. In addition, the phagocytosis activity result in assay [2] (6.25 μM), in assay [2] (12.5 μM) and in assay [2] (25 μM) was “more phagocytosis activity than EDTA control cells” each time.
